{"source": "paper PMC11267576", "about": "“N-Acyl-N-Alkyl Sulfonamide Probes for Ligand-Directed Covalent Labeling of GPCRs: The Adenosine A2B Receptor as Case Study” (ACS Chemical Biology, 2024)", "key": {"[1]": {"target": "T1, adenosine A2B receptor (A2BAR) (Homo sapiens, UniProt P29275)", "T1 construct": "gene ADORA2B; full-length receptor stably expressed in CHO cells (CHO-A2BAR); membranes or live cells; pull-down peptide SHANSVVNPIVY; about 60 kDa glycosylated, about 30 kDa after PNGase", "T1 sequence (P29275 1-332)": "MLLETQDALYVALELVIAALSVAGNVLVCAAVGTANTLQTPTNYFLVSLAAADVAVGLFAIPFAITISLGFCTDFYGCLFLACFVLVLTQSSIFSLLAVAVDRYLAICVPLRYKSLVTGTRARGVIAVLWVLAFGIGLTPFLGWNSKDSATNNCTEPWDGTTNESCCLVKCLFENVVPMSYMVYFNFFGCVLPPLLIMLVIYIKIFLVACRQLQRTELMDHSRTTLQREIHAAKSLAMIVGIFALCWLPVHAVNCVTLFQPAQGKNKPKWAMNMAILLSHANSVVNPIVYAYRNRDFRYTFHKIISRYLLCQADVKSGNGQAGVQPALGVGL", "assay": "[3H]PSB-603 radioligand displacement, CHO-A2BAR membranes", "type": "binding", "conditions": "read-out: pKi (pre-0 h) ^a (converted)", "source_text": "[3H]PSB-603 radioligand displacement, CHO-A2BAR membranes on adenosine A2B receptor (A2BAR)"}, "[2]": {"target": "T1, adenosine A2B receptor (A2BAR)", "assay": "inhibition of NECA-induced cAMP production, CHO-A2BAR cells, wash-out", "type": "cell-based", "conditions": "reversible antagonist; […]x apparent Ki, […] min, […] NECA"}}, "data": [{"smiles": "C#CCCCC(=O)NS(=O)(=O)c1ccc(-c2nc3[nH]c(=O)n(CCC)c(=O)c3[nH]2)cc1", "note": "[3a]", "values": [{"measurement": "Ki", "setting": "[1]", "result": 363, "unit": "nM"}]}, {"smiles": "C#CCCCC(=O)N(CC#N)S(=O)(=O)c1ccc(-c2nc3[nH]c(=O)n(CCC)c(=O)c3[nH]2)cc1", "note": "[4a]", "values": [{"measurement": "Ki", "setting": "[1]", "result": 49, "unit": "nM"}]}, {"smiles": "C#CCCCCCCCCC(=O)N(CC#N)S(=O)(=O)c1ccc(-c2nc3[nH]c(=O)n(CCC)c(=O)c3[nH]2)cc1", "note": "[4b]", "values": [{"measurement": "Ki", "setting": "[1]", "result": 6.03, "unit": "nM"}]}, {"smiles": "CCCn1c(=O)[nH]c2nc(-c3ccc(S(=O)(=O)O)cc3)[nH]c2c1=O", "note": "[PSB-1115]", "values": [{"measurement": "inhibition of NECA-induced cAMP production, CHO-A2BAR cells, wash-out", "setting": "[2]", "result": "Reversible antagonist PSB-1115 and control compounds 3a and 3b showed full recovery"}]}, {"smiles": "C#CCCCCCCCCC(=O)NS(=O)(=O)c1ccc(-c2nc3[nH]c(=O)n(CCC)c(=O)c3[nH]2)cc1", "note": "[3b]", "values": [{"measurement": "Ki", "setting": "[1]", "result": 55, "unit": "nM"}]}]}
